Reference: patent US20090203737A1, “Pyrrole Derivatives as Positive Allosteric Modulators of Metabotropic Receptors” (priority 2005, published 2009)
pEC50: −log10 of the molar value. Values joined by “and” are separate entries in the source; they are usually repeats but may differ in a detail not shown here. Equal entries are not always repeated.

Target: T1, rat mGluR5 receptor (Rattus norvegicus, UniProt P31424)
T1 construct: expressed in transfected cells
Experiment: mGluR5 assay on HEK-expressing rat mGluR5 (fluorescent cell based Ca2+ mobilization assay)
Settings: HEK-293 cells stably expressing rat mGluR5; no co-addition of glutamate; mean of at least three independent experiments in duplicate; read-out: Ca++ Flux (mean EC50)
Experimental: Positive functional expression of HEK-293 cells stably expressing rat mGluR5 receptor was determined by measuring intracellular Ca^2+ changes using a Fluorometric Imaging Plate Reader (FLIPR, Molecular Devices, Sunnyvale, Calif.) in response to glutamate or selective known mGluR5 agonists and antagonists. Rat mGluR5 RT-PCR products in HEK-293 cells were sequenced and found 100% identical to rat mGluR5 Genbank reference sequence (NM_017012). HEK-293 cells expressing rmGluR5 were maintained in media containing DMEM, dialyzed Fetal Bovine Serum (10%), Glutamax™ (2 mM), Penicillin (100 units/ml), Streptomycin (100 μg/ml), Geneticin (100 μg/ml) and Hygromycin-B (40 μg/ml) at 37° C./5% CO2.
After one day of incubation, cells were washed with assay buffer containing: 142 mM NaCl, 6 mM KCl, 1 mM […], 1 mM CaCl2, 20 mM HEPES, 1 g/L glucose, 0.125 mM sulfinpyrazone, pH 7.4. After 60 min of loading with 4 uM Fluo-4 (TefLabs, Austin, Tex.), the cells were washed three times with 50 μl of PBS Buffer and resuspended in 45 μl of assay Buffer. The plates were then transferred to a Fluorometric Imaging Plate Reader (FLIPR, Molecular Devices, Sunnyvale, Calif.) for the assessment of intracellular calcium flux. After monitoring the baseline fluorescence for 10 seconds, increasing concentrations of representative compound (from 0.01 to 60 μM) of the present invention diluted in Assay Buffer (15 μl of 4× dilutions) was added to the cell. The final DMSO concentration in the assay was 0.3%. In each experiment, fluorescence was then monitored as a function of time for 3 minutes and the data analyzed using Microsoft Excel and GraphPad Prism. Each data point was also measured two times.
Under these experimental conditions, this HEK-rat mGluR5 cell line is able to directly detect positive allosteric modulators without the need of co-addition of glutamate or mGluR5 agonist.
The concentration-response curves of representative compounds of the present invention were generated using the Prism GraphPad software (Graph Pad Inc, San Diego, USA). The curves were fitted to a four-parameter logistic equation:
(Y=Bottom+(Top−Bottom)/(1+10̂((LogEC50−X)*Hill Slope)
allowing determination of EC50 values.
The Table 1 below represents the mean EC50 obtained from at least three independent experiments of selected molecules performed in duplicate.

T1 sequence (P31424 21-1171 isoform P31424-2 limits assumed): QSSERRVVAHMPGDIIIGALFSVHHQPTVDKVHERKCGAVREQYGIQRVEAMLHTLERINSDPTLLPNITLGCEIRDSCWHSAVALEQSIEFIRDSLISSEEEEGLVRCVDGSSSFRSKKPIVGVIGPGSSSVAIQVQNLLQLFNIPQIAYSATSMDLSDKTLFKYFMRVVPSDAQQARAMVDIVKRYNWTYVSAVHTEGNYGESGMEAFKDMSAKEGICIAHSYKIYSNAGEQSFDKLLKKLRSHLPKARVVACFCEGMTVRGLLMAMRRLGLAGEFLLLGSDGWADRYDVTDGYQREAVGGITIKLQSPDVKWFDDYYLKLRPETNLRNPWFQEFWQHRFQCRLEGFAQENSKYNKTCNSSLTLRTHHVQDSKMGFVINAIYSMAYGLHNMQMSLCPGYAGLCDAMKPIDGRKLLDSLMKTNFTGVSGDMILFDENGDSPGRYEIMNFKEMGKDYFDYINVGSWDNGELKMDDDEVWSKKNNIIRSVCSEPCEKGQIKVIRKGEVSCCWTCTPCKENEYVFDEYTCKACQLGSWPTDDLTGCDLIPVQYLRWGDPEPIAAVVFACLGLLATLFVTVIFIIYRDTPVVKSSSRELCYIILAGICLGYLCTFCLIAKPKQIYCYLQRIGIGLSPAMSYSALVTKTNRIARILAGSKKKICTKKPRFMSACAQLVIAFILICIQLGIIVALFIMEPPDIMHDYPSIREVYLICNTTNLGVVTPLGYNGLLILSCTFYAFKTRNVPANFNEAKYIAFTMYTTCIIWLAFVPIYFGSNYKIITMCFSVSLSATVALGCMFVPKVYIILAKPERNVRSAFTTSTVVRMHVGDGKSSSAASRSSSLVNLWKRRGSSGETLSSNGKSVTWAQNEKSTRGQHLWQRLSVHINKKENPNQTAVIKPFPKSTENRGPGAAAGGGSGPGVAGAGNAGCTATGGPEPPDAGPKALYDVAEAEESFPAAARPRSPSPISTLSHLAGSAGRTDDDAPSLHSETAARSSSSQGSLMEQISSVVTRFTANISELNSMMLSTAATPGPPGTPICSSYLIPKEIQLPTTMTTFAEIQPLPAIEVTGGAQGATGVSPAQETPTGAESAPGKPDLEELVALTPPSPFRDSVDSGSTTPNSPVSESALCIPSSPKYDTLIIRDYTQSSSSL

Structure (SMILES)	pEC50
O=C(c1ccc(F)cc1F)N1CCC[C@H](c2nc(-c3cc4ccccc4[nH]3)no2)C1 [Example 12, (2,4-Difluoro-phenyl)-{(S)-3-[3-(1H-indol-2-yl)-[1,2,4]oxadiazol-5-yl]-piperidin-1-yl}-methanone]	5.00 to 6.00
O=C(c1ccc(F)cc1)N1CCCC(c2noc(-c3ccn[nH]3)n2)C1 (stereo not drawn) [Example 13, (4-Fluoro-phenyl)-{3-[5-(2H-pyrazol-3-yl)-[1,2,4]oxadiazol-3-yl]-piperidin-1-yl}-methanone]	< 5.00
O=C(c1ccc(F)c(F)c1)N1CCCC(c2noc(-c3ccn[nH]3)n2)C1 (stereo not drawn) [Example 14, (3,4-Difluoro-phenyl)-{3-[5-(2H-pyrazol-3-yl)-[1,2,4]oxadiazol-3-yl]-piperidin-1-yl}-methanone]	< 5.00
O=C(c1ccc(F)cc1)N1CCC[C@H](c2nc(-c3cc4ccccc4[nH]3)no2)C1 [Example 16, (4-Fluoro-phenyl)-{(S)-3-[3-(1H-indol-2-yl)-[1,2,4]oxadiazol-5-yl]-piperidin-1-yl}-methanone]	5.00 to 6.00
O=C(c1ccc(F)cc1)N1CCCC(c2noc(-c3ncc[nH]3)n2)C1 (stereo not drawn) [Example 17, (4-Fluoro-phenyl)-{3-[5-(1H-imidazol-2-yl)-[1,2,4]oxadiazol-3-yl]-piperidin-1-yl}-methanone]	5.00 to 6.00
O=C(c1ccc(F)cc1)N1CCC[C@H](c2nc(-c3ncc[nH]3)no2)C1 [Example 24, (4-Fluoro-phenyl)-{(S)-3-[3-(1H-imidazol-2-yl)-[1,2,4]oxadiazol-5-yl]-piperidin-1-yl}-methanone]	5.00 to 6.00
Cc1ccc(-c2nc([C@H]3CCCN(C(=O)c4ccc(F)cc4)C3)no2)[nH]1 [Example 38, (4-Fluoro-phenyl)-{(S)-3-[5-(5-methyl-1H-pyrrol-2-yl)-[1,2,4]oxadiazol-3-yl]-piperidin-1-yl}-methanone]	5.00 to 6.00
O=C(c1ccc(F)nc1)N1CCC[C@H](c2noc(-c3cc(Br)c[nH]3)n2)C1 [Example 44, {(S)-3-[5-(4-Bromo-1H-pyrrol-2-yl)-[1,2,4]oxadiazol-3-yl]-piperidin-1-yl}-(6-fluoro-pyridin-3-yl)-methanone]	> 6.00 and < 5.00
O=C(c1ccc(F)cc1)N1CCC[C@H](c2nc(-c3cc(Br)c[nH]3)no2)C1 [Example 45, {(S)-3-[3-(4-Bromo-1H-pyrrol-2-yl)-[1,2,4]oxadiazol-5-yl]-piperidin-1-yl}-(4-fluoro-phenyl)-methanone]	> 6.00
O=C(c1ccc(F)nc1)N1CCC[C@H](c2nc(-c3cc(Br)c[nH]3)no2)C1 [Example 46, {(S)-3-[3-(4-Bromo-1H-pyrrol-2-yl)-[1,2,4]oxadiazol-5-yl]-piperidin-1-yl}-(6-fluoro-pyridin-3-yl)-methanone]	> 6.00
CC1(C)CC(c2nc(-c3ccc[nH]3)no2)CN(C(=O)c2ccc(F)cc2)C1 (stereo not drawn) [Example 49, {3,3-Dimethyl-5-[3-(1H-pyrrol-2-yl)-[1,2,4]oxadiazol-5-yl]-piperidin-1-yl}-(4-fluoro-phenyl)-methanone]	5.00 to 6.00
O=C(c1ccc(F)nc1)N1CCC[C@H](c2nc(-c3cc(F)c[nH]3)no2)C1 [Example 52, (6-Fluoro-pyridin-3-yl)-{(S)-3-[3-(4-fluoro-1H-pyrrol-2-yl)-[1,2,4]oxadiazol-5-yl]-piperidin-1-yl}-methanone]	> 6.00
O=C(c1ccnc(F)c1)N1CCC[C@H](c2nc(-c3cc(F)c[nH]3)no2)C1 [Example 53, (2-Fluoro-pyridin-4-yl)-{(S)-3-[3-(4-fluoro-1H-pyrrol-2-yl)-[1,2,4]oxadiazol-5-yl]-piperidin-1-yl}-methanone]	> 6.00
O=C(c1ccc(F)cc1)N1CCC[C@H](n2nnc(-c3ccc[nH]3)n2)C1 [Example 54, (4-Fluoro-phenyl)-{(S)-3-[5-(1H-pyrrol-2-yl)-tetrazol-2-yl]-piperidin-1-yl}-methanone]	> 6.00
O=C(c1ccc(F)cc1)N1CCC[C@H](c2noc(-c3nc(C(F)(F)F)c[nH]3)n2)C1 [Example 55, (4-Fluoro-phenyl)-{(S)-3-[5-(4-trifluoromethyl-1H-imidazol-2-yl)-[1,2,4]oxadiazol-3-yl]-piperidin-1-yl}-methanone]	5.00 to 6.00
O=C(c1ccc(F)cc1)N1CCC(c2nc(-c3ccc[nH]3)no2)C1 (stereo not drawn) [Example 57, (4-Fluoro-phenyl)-{3-[3-(1H-pyrrol-2-yl)-[1,2,4]oxadiazol-5-yl]-pyrrolidin-1-yl}-methanone]	5.00 to 6.00
Cc1c[nH]c(-c2nc([C@H]3CCCN(C(=O)c4ccncc4F)C3)no2)c1 [Example 58, (3-Fluoro-pyridin-4-yl)-{(S)-3-[5-(4-methyl-1H-pyrrol-2-yl)-[1,2,4]oxadiazol-3-yl]-piperidin-1-yl}-methanone]	> 6.00

Results, then the compound that gave them:

pEC50	Structure (SMILES)
> 6.00	O=C(c1ccc(F)cc1F)N1CCC[C@H](c2nc(-c3ccc[nH]3)no2)C1 [Example 2, (2,4-Difluoro-phenyl)-((S)-3-[3-(1H-pyrrol-2-yl)-[1,2,4]oxadiazol-5-yl]-piperidin-1-yl)-methanone]
> 6.00	O=C(c1ccc(F)c(F)c1)N1CCC[C@H](c2nc(-c3ccc[nH]3)no2)C1 [Example 3, (3,4-Difluoro-phenyl)-{(S)-3-[3-(1H-pyrrol-2-yl)-[1,2,4]oxadiazol-5-yl]-piperidin-1-yl}-methanone]
> 6.00	Cc1c[nH]c(-c2nc([C@H]3CCCN(C(=O)c4ccc(F)nc4)C3)no2)c1 [Example 28, (6-Fluoro-pyridin-3-yl)-{(S)-3-[5-(4-methyl-1H-pyrrol-2-yl)-[1,2,4]oxadiazol-3-yl]-piperidin-1-yl}-methanone]
> 6.00	Cc1c[nH]c(-c2nc([C@H]3CCCN(C(=O)c4cnoc4C)C3)no2)c1 [Example 29, (5-Methyl-isoxazol-4-yl)-{(S)-3-[5-(4-methyl-1H-pyrrol-2-yl)-[1,2,4]oxadiazol-3-yl]-piperidin-1-yl}-methanone]
> 6.00	Cc1c[nH]c(-c2nc([C@H]3CCCN(C(=O)c4ccnc(F)c4)C3)no2)c1 [Example 30, (2-Fluoro-pyridin-4-yl)-{(S)-3-[5-(4-methyl-1H-pyrrol-2-yl)-[1,2,4]oxadiazol-3-yl]-piperidin-1-yl}-methanone]
> 6.00	Cc1c[nH]c(-c2noc([C@H]3CCCN(C(=O)c4ccc(F)nc4)C3)n2)c1 [Example 33, (6-Fluoro-pyridin-3-yl)-{(S)-3-[3-(4-methyl-1H-pyrrol-2-yl)-[1,2,4]oxadiazol-5-yl]-piperidin-1-yl}-methanone]
> 6.00	Cc1c[nH]c(-c2noc([C@H]3CCCN(C(=O)c4ccnc(F)c4)C3)n2)c1 [Example 34, (2-Fluoro-pyridin-4-yl)-{(S)-3-[3-(4-methyl-1H-pyrrol-2-yl)-[1,2,4]oxadiazol-5-yl]-piperidin-1-yl}-methanone]
> 6.00	Cc1c[nH]c(-c2noc([C@H]3CCCN(C(=O)c4cnoc4C)C3)n2)c1 [Example 35, (5-Methyl-isoxazol-4-yl)-{(S)-3-[3-(4-methyl-1H-pyrrol-2-yl)-[1,2,4]oxadiazol-5-yl]-piperidin-1-yl}-methanone]
> 6.00	O=C(c1ccc(F)cc1)N1CCC[C@H](c2noc(-c3cc(Cl)c[nH]3)n2)C1 [Example 39, {(S)-3-[5-(4-Chloro-1H-pyrrol-2-yl)-[1,2,4]oxadiazol-3-yl]-piperidin-1-yl}-(4-fluoro-phenyl)-methanone]
> 6.00	O=C(c1ccc(F)nc1)N1CCC[C@H](c2noc(-c3cc(Cl)c[nH]3)n2)C1 [Example 40, {(S)-3-[5-(4-Chloro-1H-pyrrol-2-yl)-[1,2,4]oxadiazol-3-yl]-piperidin-1-yl}-(6-fluoro-pyridin-3-yl)-methanone]
> 6.00	O=C(c1ccnc(F)c1)N1CCC[C@H](c2noc(-c3cc(Cl)c[nH]3)n2)C1 [Example 41, {(S)-3-[5-(4-Chloro-1H-pyrrol-2-yl)-[1,2,4]oxadiazol-3-yl]-piperidin-1-yl}-(2-fluoro-pyridin-4-yl)-methanone]
> 6.00	Cc1oncc1C(=O)N1CCC[C@H](c2noc(-c3cc(Cl)c[nH]3)n2)C1 [Example 42, {(S)-3-[5-(4-Chloro-1H-pyrrol-2-yl)-[1,2,4]oxadiazol-3-yl]-piperidin-1-yl}-(5-methyl-isoxazol-4-yl)-methanone]
> 6.00	O=C(c1ccc(F)cc1)N1CCC[C@H](c2nc(-c3cc(Cl)c[nH]3)no2)C1 [Example 43, {(S)-3-[3-(4-Chloro-1H-pyrrol-2-yl)-[1,2,4]oxadiazol-5-yl]-piperidin-1-yl}-(4-fluoro-phenyl)-methanone]
